According to patent US20020169111A1, “Reversal of multidrug resistance in human colon carcinoma cells” (American Cyanamid Comany, priority 1998, published 2002):

Tested on: S1-M1-3.2 cells
Conditions: for Toxicity (>20%): compound alone, concentration that causes greater than 20% cell death of S1-M1-3.2 cells; for IC50: read-out: IC50 (μM), resensitizing S1-M1-3.2 cells to mitoxantrone, with 3.2 μM mitoxantrone, 50% cancer cell death
Procedure: One of the first reported molecules with reversing activity was verapamil, a calcium channel blocker. […] Cells were plated into 96-well dishes (100 μl/well) in growth medium supplemented with 5% FBS. […] Reversal agents were tested from 0.1-80 μM (triplicate points per dose). In parallel wells, cells were grown in the presence of the reversal agent alone.
The Difference Score is the difference in the percentage of cells surviving when the drug was given alone minus the percentage of cells surviving when the drug was given along with the antitumor agent.
Cell survival was estimated using the Sulforhodamine (SRB) assay.

`CC(C)CC1c2[nH]c3ccccc3c2CC2C(=O)N3CCCCC3C(=O)N21` [Example 21a, (6aR,13R,15aR)-13-isobutyl-1,2,3,4,6a,7,12,13,15a-nonahydro-6H,15H-pyrido[1″,2″:4′,5′]pyrazino[2′,1′:6,1]pyrido[3,4-b]indole-6H,15H-dione] was tested. Which “Toxicity (>20%)” value did it give?
Its value is 10.0 µM.

What about the IC50 of the same compound?
Its IC50 is 10.5 µM.

Which results are given for `CC(C)=C[C@H]1c2[nH]c3ccccc3c2C[C@H]2C(=O)N3CCC[C@H]3C(=O)N21` [Example 27]?
Toxicity (>20%): >80 µM; IC50: 2.5 µM

For `CC(C)CC1c2[nH]c3ccccc3c2CC2C(=O)N3CCCCC3C(=O)N21` [Example 20a, (6aS,13R,15aR)-13-isobutyl-1,2,3,4,6a,7,12,13,15a-nonahydro-6H,15H-pyrido[1″,2″:4′,5′]pyrazino[2′,1′:6,1]pyrido[3,4-b]indole-6H,15H-dione], which “Toxicity (>20%)” value is on record?
The value was 80.0 µM.

And the IC50?
Its IC50 is 30 µM.

What does the source list for `CC(C)C[C@@H]1c2[nH]c3ccccc3c2C[C@H]2C(=O)N3CC[C@H]3C(=O)N12` [Example 22a, (4aS,11R,13aS)-11-isobutyl-1,4a,5,10,11,13a-hexahydro-4H-azeto[1″,2″:4′,5′]pyrazino[2′,1′:6,1]pyrido[3,4-b]indole-4,13(2H)-dione]?
Toxicity (>20%): 80.0 µM; IC50: 15 µM

Which results are given for `CC(C)C[C@@H]1c2[nH]c3ccccc3c2C[C@H]2C(=O)N3CCC[C@@H]3C(=O)N12` [Example 16a, (5aS,12R,14aR)-12-isobutyl-1,2,3,5a,6,11,12,14a-octahydro-5H,14H-pyrrolo[1″,2″:4′,5′]pyrazino[2′,1′:6,1]pyrido[3,4-b]indole-5,14-dione]?
Toxicity (>20%): >80.0 µM; IC50: > 80 µM

`CC(C)C[C@H]1c2[nH]c3ccccc3c2C[C@H]2C(=O)N3CCC[C@@H]3C(=O)N21` [Example 16b, (5aS,12S,14aR)-12-isobutyl-1,2,3,5a,6,11,12,14a-octahydro-5H,14H-pyrrolo[1″,2″:4′,5′]pyrazino[2′,1′:6,1]pyrido[3,4-b]indole-5,14-dione] was tested. Which “Toxicity (>20%)” value did it give?
Its value is greater than 80.0 µM.

And the IC50?
The IC50 was 5.5 µM.

For `CCCCCCCCC[C@H]1c2[nH]c3ccccc3c2C[C@H]2C(=O)N3CCC[C@H]3C(=O)N21` [Example 28, (5aS,12S,14aS)-12-nonyl-1,2,3,5a,6,11,12,14a-octahydro-5H,14H-pyrrolo[1″,2″:4′,5′]pyrazino[2′,1′:6,1]pyrido[3,4-b]Indole-5,14-dione], which “Toxicity (>20%)” value is on record?
Its value is 7.0 µM.

And the IC50?
Its IC50 is 0.25 µM.

What does the source list for `O=C1[C@@H]2Cc3c([nH]c4ccccc34)[C@H](CCCCCc3ccccc3)N2C(=O)[C@@H]2CCCN12` [Example 23b, (5aS,12S,14aS)-12-(5-phenylpentyl)-1,2,3,5a,6,11,12,14a-octahydro-5H,14H-pyrrolo[1″,2″:4′,5′]pyrazino[2′,1′:6,1]pyrido[3,4-b]indole-5,14-dione]?
Toxicity (>20%): >80 µM; IC50: 3 µM

`CC(C)CC1c2[nH]c3ccccc3c2CC2C(=O)N3CCCCC3C(=O)N21` [Example 19b, (6aR,13S,15aS-13-isobutyl-1,2,3,4,6a,7,12,13,15a-nonahydro-6H,15H-pyrido[1″,2″:4′,5′]pyrazino[2′,1′:6,1]pyrido[3,4-b]indole-6H,15H-dione] was tested. Which “Toxicity (>20%)” value did it give?
The value was greater than 80.0 µM.

And the IC50?
Its IC50 is 4 µM.

With `NCCC[C@@H]1c2[nH]c3ccccc3c2C[C@H]2C(=O)N3CCC[C@H]3C(=O)N12` [Example 29a, (5aS,12R,14aS)-12-(3-aminopropyl)-1,2,3,5a,6,11,12,14a-octahydro-5H,14H-pyrrolo[1″,2″:4′,5′]pyrazino[2′,1′:6,1]pyrido[3,4-b]indole-5,14-dione] as the compound, how does the “Toxicity (>20%)” value read?
The value was greater than 80 µM.

And the IC50?
Its IC50 is 20 µM.

Which “Toxicity (>20%)” value does the source give for `CC(C)C[C@@H]1c2[nH]c3ccccc3c2C[C@@H]2C(=O)N3CCC[C@@H]3C(=O)N21` [Example 17a, (5aR,12R,14aR)-12-isobutyl-1,2,3,5a,6,11,12,14a-octahydro-5H,14H-pyrrolo[1″,2″:4′,5′]pyrazino[2′,1′:6,1]pyrido[3,4-b]indole-5,14-dione] here?
The value was 50.0 µM.

And the IC50?
Its IC50 is 35 µM.

Which results are given for `CC(C)CC1c2[nH]c3ccccc3c2CC2C(=O)N3CCCCC3C(=O)N21` [Example 21b, (6aR,13S,15aR)-13-isobutyl-1,2,3,4,6a,7,12,13,15a-nonahydro-6H,15H-pyrido[1″,2″:4′,5′]pyrazino[2′,1′:6,1]pyrido[3,4-b]indole-6H,15H-dione]?
Toxicity (>20%): >80.0 µM; IC50: 6 µM

With `CC(C)CC1c2[nH]c3ccccc3c2CC2C(=O)N3CCCCC3C(=O)N21` [Example 20b, (6aS,13S,15aR)-13-isobutyl-1,2,3,4,6a,7,12,13,15a-nonahydro-6H,15H-pyrido[1″,2″:4′,5′]pyrazino[2′,1′:6,1]pyrido[3,4-b]indole-6H,15H-dione] as the compound, how does the “Toxicity (>20%)” value read?
The value was 50.0 µM.

What about the IC50 of the same compound?
The IC50 was 2 µM.

Which “Toxicity (>20%)” value does the source give for `CC(C)CC1c2[nH]c3ccccc3c2CC2C(=O)N3CCCCC3C(=O)N21` [Example 19a, (6aR,13R,15aS)-13-isobutyl-1,2,3,4,6a,7,12,13,15a-nonahydro-6H,15H-pyrido[1″,2″:4′,5′]pyrazino[2′,1′:6,1]pyrido[3,4-b]indole-6H,15H-dione] here?
The value was 50.0 µM.

What about the IC50 of the same compound?
Its IC50 is 11 µM.

Which “Toxicity (>20%)” value does the source give for `CC(C)C[C@@H]1c2[nH]c3ccccc3c2C[C@H]2C(=O)N3CCC[C@H]3C(=O)N12` [Example 14a, (5aS,12R,14aS)-12-isobutyl-1,2,3,5a,6,11,12,14a-octahydro-5H,14H-pyrrolo[1″,2″:4′,5′]pyrazino[2′,1′:6,1]pyrido[3,4-b]indole-5,14-dione] here?
The value was 80.0 µM.

And the IC50?
The IC50 was 80 µM.

What does the source list for `O=C(NCCC[C@H]1c2[nH]c3ccccc3c2C[C@H]2C(=O)N3CCC[C@H]3C(=O)N21)OCc1ccccc1` [Example 24b, Benzyl 3-[(5aS,12S,14aS)-5,14-dioxo-2,3,5a,6,11,12,14,14a-octahydro-1H,5H-pyrrolo[1″,2″:4′,5′]pyrazino[2′,1′:6,1]pyrido[3,4-b]indol-12-yl]propylcarbamate]?
Toxicity (>20%): 20 µM; IC50: 2 µM

What does the source list for `O=C(O)CCC(=O)NCCC[C@H]1c2[nH]c3ccccc3c2C[C@H]2C(=O)N3CCC[C@H]3C(=O)N21` [Example 32, 4-({3-[(5aS,12S,14aS)-5,14-dioxo-2,3,5a,6,11,12,14,14a-octahydro-1H,5H-pyrrolo[1″,2″:4′,5′]pyrazino[2′,1′:6,1]pyrido[3,4-b]indol-12-yl]propyl}amino)-4-oxobutanoic acid]?
Toxicity (>20%): >80 µM; IC50: > 80 µM

Which “Toxicity (>20%)” value does the source give for `CC(C)C[C@H]1c2[nH]c3ccccc3c2C[C@H]2C(=O)N3CCC[C@H]3C(=O)N21` [Example 14b, (5aS,12S,14aS)-12-isobutyl-1,2,3,5a,6,11,12,14a-octahydro-5H,14H-pyrrolo[1″,2″:4′,5′]pyrazino[2′,1′:6,1]pyrido[3,4-b]indole-5,14-dione] here?
Its value is 35.0 µM.

What about the IC50 of the same compound?
Its IC50 is 1 µM.

Which results are given for `O=C1[C@@H]2Cc3c([nH]c4ccccc34)[C@@H](CCCCCc3ccccc3)N2C(=O)[C@@H]2CCCN12` [Example 23a, (5aS,12R,14aS)-12-(5-phenylpentyl)-1,2,3,5a,6,11,12,14a-octahydro-5H,14H-pyrrolo[1″,2″:4′,5′]pyrazino[2′,1′:6,1]pyrido[3,4-b]indole-5,14-dione]?
Toxicity (>20%): 7.5 µM; IC50: 0.3 µM

With `O=C1[C@@H]2Cc3c([nH]c4ccccc34)CN2C(=O)[C@@H]2CCCN12` [Example 25, (5aS,14aS)-1,2,3,5a,6,11,12,14a-octahydro-5H,14H-pyrrolo[1″,2″:4′,5′]pyrazino[2′,1′:6,1]pyrido[3,4-b]indole-5,14-dione] as the compound, how does the “Toxicity (>20%)” value read?
The value was greater than 80 µM.

And the IC50?
The IC50 was 15 µM.

`CCCC(=O)NCCC[C@H]1c2[nH]c3ccccc3c2C[C@H]2C(=O)N3CCC[C@H]3C(=O)N21` [Example 31, N-{3-[(5aS,12S,14aS)-5,14-dioxo-2,3,5a,6,11,12,14,14a-octahydro-1H,5H-pyrrolo[1″,2″:4′,5′]pyrazino[2′,1′:6,1]pyrido[3,4-b]indol-12-yl]propyl}Butanamide] was tested. Which “Toxicity (>20%)” value did it give?
Its value is greater than 80 µM.

What about the IC50 of the same compound?
Its IC50 is 65 µM.

How did the “Toxicity (>20%)” value turn out when `CC(=O)NCCC[C@H]1c2[nH]c3ccccc3c2C[C@H]2C(=O)N3CCC[C@H]3C(=O)N21` [Example 30, N-{3-[(5aS,12S,14aS)-5,14-dioxo-2,3,5a,6,11,12,14,14a-octahydro-1H,5H-pyrrolo[1″,2″:4′,5′]pyrazino[2′,1′:6,1]pyrido[3,4-b]indol-12-yl]propyl}Acetamide] was run?
The value was greater than 80 µM.

What about the IC50 of the same compound?
Its IC50 is greater than 80 µM.

With `CC(C)CC1c2[nH]c3ccccc3c2CC2C(=O)N3CCCCC3C(=O)N21` [Example 18a, (6aS,13R,15aS)-13-isobutyl-1,2,3,4,6a,7,12,13,15a-nonahydro-6H,15H-pyrido[1″,2″:4′,5′]pyrazino[2′,1′:6,1]pyrido[3,4-b]indole-6H,15H-dione] as the compound, how does the “Toxicity (>20%)” value read?
The value was 15.0 µM.

And the IC50?
Its IC50 is 50 µM.

`CC(C)CC1c2[nH]c3ccccc3c2CC2C(=O)N3CCCCC3C(=O)N21` [Example 18b, (6aS,13S,15aS)-13-isobutyl-1,2,3,4,6a,7,12,13,15a-nonahydro-6H,15H-pyrido[1″,2″:4′,5′]pyrazino[2′,1′:6,1]pyrido[3,4-b]indole-6H,15H-dione] was tested. Which “Toxicity (>20%)” value did it give?
Its value is 25.0 µM.

What about the IC50 of the same compound?
The IC50 was 1.5 µM.

Which “Toxicity (>20%)” value does the source give for `C[C@H]1c2[nH]c3ccccc3c2C[C@H]2C(=O)N3CCC[C@H]3C(=O)N21` [Example 26, (5aS,12S,14aS)-12-methyl-1,2,3,5a,6,11,12,14a-octahydro-5H,14H-pyrrolo[1″,2″:4′,5′]pyrazino[2′,1′:6,1]pyrido[3,4-b]indole-5,14-dione] here?
Its value is greater than 80.0 µM.

And the IC50?
The IC50 was 7 µM.
